# Laboratory results reported in ChEMBL document CHEMBL1127314, “A new potent and selective histamine H3 receptor agonist, 4-(1H-imidazol-4-ylmethyl)piperidine” (J Med Chem, 1994).
# How the values were obtained:
# [1] = target: Histamine H3 receptor (Cavia porcellus) (UniProt Q9JI35); test: KL value determined on H3 receptor
# [2] = target: Histamine H3 receptor (Cavia porcellus) (UniProt Q9JI35); test: H3 receptor agonistic activity of the compound; assay type: functional
# [3] = pD2 value was determined on jejunum preparations of eight different animals; assay type: ADME, tissue-based
# [4] = pKi log value determined for the guinea pig H1 receptor; assay type: ADME
# Sequence of Histamine H3 receptor (Cavia porcellus) (Q9JI35 whole entry): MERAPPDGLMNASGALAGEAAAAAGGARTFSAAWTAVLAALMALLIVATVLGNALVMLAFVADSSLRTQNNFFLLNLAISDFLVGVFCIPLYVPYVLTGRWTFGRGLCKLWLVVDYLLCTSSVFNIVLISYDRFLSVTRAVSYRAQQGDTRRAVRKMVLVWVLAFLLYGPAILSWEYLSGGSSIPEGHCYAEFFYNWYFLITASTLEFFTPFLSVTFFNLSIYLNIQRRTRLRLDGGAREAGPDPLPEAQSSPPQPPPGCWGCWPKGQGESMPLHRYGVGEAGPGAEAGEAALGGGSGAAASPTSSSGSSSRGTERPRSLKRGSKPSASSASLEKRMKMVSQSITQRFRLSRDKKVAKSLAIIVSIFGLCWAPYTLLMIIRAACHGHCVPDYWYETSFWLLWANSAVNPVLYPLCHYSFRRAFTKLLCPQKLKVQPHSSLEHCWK
SMILES,KL [1] [µM],KH [2] [nM],pD2 [3],Log Ki [4]
C[C@@H](N)Cc1c[nH]cn1,0.22,4.3,7.8,
c1nc(CC2CCNCC2)c[nH]1 [IMMEPIP],1.01,2.7,8,-4.79
